# Assay results as given in ChEMBL document CHEMBL1201862, “PubChem BioAssay data set” (2004).
#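 Protocol summary: plate cells (96-well), add compound at 5 concentrations, incubate 48 h, interpolate endpoints linearly. GI50 = concentration required for 50% inhibition of growth.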 Calls of active or inactive are those of the source. Rule as the data show it: active = GI50 up to about 1.1 µM and inactive = higher.
# Key:
# Assay in all cases: NCI tumour cell line growth inhibition, 48 h
# SF-295 = system: SF-295
# MOLT-4 = system: MOLT-4
# TK-10 = system: TK-10
# 786-0 = system: 786-0
# NCI-H23 = system: NCI-H23
# DU-145 = system: DU-145
# K562 = system: K562
# Malme-3M = system: Malme-3M
# KM12 = system: KM12
# DMS-273 = system: DMS-273
# HCT-116 = system: HCT-116
# SR = system: SR
# OVCAR-4 = system: OVCAR-4
# OVCAR-3 = system: OVCAR-3
# DLD-1 = system: DLD-1
# SNB-75 = system: SNB-75
# NCI-H460 = system: NCI-H460
# NCI/ADR-RES = system: NCI/ADR-RES
# SF-539 = system: SF-539
# SNB-19 = system: SNB-19
# SF-268 = system: SF-268
# SW-620 = system: SW-620
# HCC 2998 = system: HCC 2998
# UO-31 = system: UO-31
# HL-60 = system: HL-60
# ACHN = system: ACHN
# M14 = system: M14
# OVCAR-5 = system: OVCAR-5
# A498 = system: A498
# RPMI-8226 = system: RPMI-8226
# HOP-62 = system: HOP-62
# SK-MEL-28 = system: SK-MEL-28
# MDA-MB-435 = system: MDA-MB-435
# T47D = system: T47D
# XF498 = system: XF498
# U-251 = system: U-251
# OVCAR-8 = system: OVCAR-8
# KM-20L2 = system: KM-20L2
# UACC-62 = system: UACC-62
# NCI-H226 = system: NCI-H226
# Hs-578T = system: Hs-578T
# SN12C = system: SN12C
# CCRF-CEM = system: CCRF-CEM
# EKVX = system: EKVX
# SK-MEL-2 = system: SK-MEL-2
# BT-549 = system: BT-549
# SNB-78 = system: SNB-78
# NCI-H522 = system: NCI-H522
# HT-29 = system: HT-29
# PC-3 = system: PC-3
# LOX IMVI = system: LOX IMVI
# IGROV-1 = system: IGROV-1
# COLO 205 = system: COLO 205
# HCT-15 = system: HCT-15
# SK-MEL-5 = system: SK-MEL-5
# RXF 393 = system: RXF 393
# MDA-N = system: MDA-N
# CAKI-1 = system: CAKI-1
# A549 = system: A549
# HOP-92 = system: HOP-92
# UACC-257 = system: UACC-257
# MCF7 = system: MCF7
# SK-OV-3 = system: SK-OV-3
# M19-MEL = system: M19-MEL
structure (smiles),measurement,setting,value
CCOC(=O)N[C@H]1CCc2cc(OC)c(OC)c(OC)c2-c2ccc(SC)c(=O)cc21,GI50,SF-295,< 10 nM (active)
same,GI50,MOLT-4,< 10 nM (active)
same,GI50,TK-10,1000 nM (active)
same,GI50,786-0,< 10 nM (active)
same,GI50,NCI-H23,< 10 nM (active)
same,GI50,DU-145,< 10 nM (active)
same,GI50,K562,< 10 nM (active)
same,GI50,Malme-3M,< 10 nM (active)
same,GI50,KM12,< 10 nM (active)
same,GI50,DMS-273,< 10 nM (active)
same,GI50,HCT-116,< 10 nM (active)
same,GI50,SR,< 10 nM (active)
same,GI50,OVCAR-4,16000 nM (inactive)
same,GI50,OVCAR-3,< 10 nM (active)
same,GI50,DLD-1,< 10 nM (active)
same,GI50,SNB-75,< 43.4 nM (active)
same,GI50,NCI-H460,< 10 nM (active)
same,GI50,NCI/ADR-RES,22.8 nM (active)
same,GI50,SF-539,< 10 nM (active)
same,GI50,SNB-19,108 nM (active)
same,GI50,SF-268,< 10 nM (active)
same,GI50,SW-620,< 10 nM (active)
same,GI50,HCC 2998,< 10 nM (active)
same,GI50,UO-31,< 11.7 nM (active)
same,GI50,HL-60,< 10 nM (active)
same,GI50,ACHN,< 10 nM (active)
same,GI50,M14,< 10 nM (active)
same,GI50,OVCAR-5,317 nM (active)
same,GI50,A498,< 10 nM (active)
same,GI50,RPMI-8226,< 10 nM (active)
same,GI50,HOP-62,< 10 nM (active)
same,GI50,SK-MEL-28,746 nM (active)
same,GI50,MDA-MB-435,< 10 nM (active)
same,GI50,T47D,> 54600 nM (inactive)
same,GI50,XF498,< 10 nM (active)
same,GI50,U-251,< 10 nM (active)
same,GI50,OVCAR-8,< 10 nM (active)
same,GI50,KM-20L2,< 10 nM (active)
same,GI50,UACC-62,< 10 nM (active)
same,GI50,NCI-H226,163 nM (active)
same,GI50,Hs-578T,< 10 nM (active)
same,GI50,SN12C,< 28.7 nM (active)
same,GI50,CCRF-CEM,< 10 nM (active)
same,GI50,EKVX,29900 nM (inactive)
same,GI50,SK-MEL-2,< 10 nM (active)
same,GI50,BT-549,< 10 nM (active)
same,GI50,SNB-78,< 10 nM (active)
same,GI50,NCI-H522,< 10 nM (active)
same,GI50,HT-29,< 10 nM (active)
same,GI50,PC-3,< 10 nM (active)
same,GI50,LOX IMVI,< 10 nM (active)
same,GI50,IGROV-1,< 10 nM (active)
same,GI50,COLO 205,< 10 nM (active)
same,GI50,HCT-15,< 10 nM
same,GI50,SK-MEL-5,< 10 nM (active)
same,GI50,RXF 393,< 10 nM (active)
same,GI50,MDA-N,< 10 nM (active)
same,GI50,CAKI-1,< 10 nM (active)
same,GI50,A549,< 10 nM (active)
same,GI50,HOP-92,< 10 nM (active)
same,GI50,UACC-257,16600 nM (inactive)
same,GI50,MCF7,< 10 nM (active)
CCCCOC(=O)CN1C(=O)c2ccccc2C1=O,GI50,SF-295,> 100000 nM (inactive)
same,GI50,MOLT-4,> 100000 nM (inactive)
same,GI50,TK-10,> 100000 nM (inactive)
same,GI50,NCI-H23,> 100000 nM (inactive)
same,GI50,SK-OV-3,> 100000 nM (inactive)
same,GI50,Malme-3M,> 100000 nM (inactive)
same,GI50,KM12,> 100000 nM (inactive)
same,GI50,DMS-273,> 100000 nM (inactive)
same,GI50,HCT-116,> 100000 nM (inactive)
same,GI50,SR,> 100000 nM (inactive)
same,GI50,OVCAR-4,> 100000 nM (inactive)
same,GI50,OVCAR-3,> 100000 nM (inactive)
same,GI50,DLD-1,> 100000 nM (inactive)
same,GI50,SNB-75,> 100000 nM (inactive)
same,GI50,NCI-H460,> 100000 nM (inactive)
same,GI50,SF-539,> 100000 nM (inactive)
same,GI50,M19-MEL,> 100000 nM (inactive)
same,GI50,SNB-19,> 100000 nM (inactive)
same,GI50,SF-268,> 100000 nM (inactive)
same,GI50,SW-620,> 100000 nM (inactive)
same,GI50,HCC 2998,> 100000 nM (inactive)
same,GI50,UO-31,> 100000 nM (inactive)
same,GI50,HL-60,> 100000 nM (inactive)
same,GI50,ACHN,> 100000 nM (inactive)
same,GI50,M14,> 100000 nM (inactive)
same,GI50,OVCAR-5,> 100000 nM (inactive)
same,GI50,HOP-62,> 100000 nM (inactive)
same,GI50,SK-MEL-28,> 100000 nM (inactive)
same,GI50,XF498,> 100000 nM (inactive)
same,GI50,U-251,> 100000 nM (inactive)
same,GI50,OVCAR-8,> 100000 nM (inactive)
same,GI50,KM-20L2,> 100000 nM (inactive)
same,GI50,UACC-62,> 100000 nM (inactive)
same,GI50,NCI-H226,> 100000 nM (inactive)
same,GI50,EKVX,> 100000 nM (inactive)
same,GI50,SK-MEL-2,> 100000 nM (inactive)
same,GI50,SNB-78,> 100000 nM (inactive)
same,GI50,NCI-H522,> 100000 nM (inactive)
same,GI50,HT-29,> 100000 nM (inactive)
same,GI50,LOX IMVI,> 100000 nM (inactive)
same,GI50,IGROV-1,> 100000 nM (inactive)
same,GI50,COLO 205,> 100000 nM (inactive)
same,GI50,HCT-15,> 100000 nM
same,GI50,SK-MEL-5,> 100000 nM (inactive)
same,GI50,RXF 393,> 100000 nM (inactive)
same,GI50,CAKI-1,84500 nM (inactive)
same,GI50,A549,> 100000 nM (inactive)
same,GI50,HOP-92,> 100000 nM (inactive)
same,GI50,UACC-257,> 100000 nM (inactive)
